Six compounds from patent EP0626016B1, “[…] […]” (BRITISH TECHNOLOGY GROUP LIMITED, priority 1992, dated 1993) can be followed below.

The assay addresses T1, HRP Type VIA (Armoracia rusticana, UniProt P00433).
T1 sequence (P00433 31-338): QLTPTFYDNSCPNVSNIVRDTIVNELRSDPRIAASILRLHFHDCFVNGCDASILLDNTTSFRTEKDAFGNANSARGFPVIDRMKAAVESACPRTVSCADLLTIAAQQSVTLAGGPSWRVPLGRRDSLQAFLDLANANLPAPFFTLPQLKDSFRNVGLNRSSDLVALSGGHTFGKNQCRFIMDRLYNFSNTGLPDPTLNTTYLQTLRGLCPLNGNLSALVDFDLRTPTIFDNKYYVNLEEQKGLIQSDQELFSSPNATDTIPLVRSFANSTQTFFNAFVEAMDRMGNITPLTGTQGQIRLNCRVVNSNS
The note with it: for (d) Signal: Background: ratio (control = with no enhancer): control value in brackets not reported.

Read-outs that look alike come from different tables or passages of the source.

Consider `OB(O)c1ccccc1Cl` [Compound 1027, 2-chlorophenylboronic acid], for which, under “0.01 mg/ml, 10µl test compound”, the “(a) Decrease in background (without HRP with test cpd.)” value is “Y”; the “(b) Increase in signal (with HRP, with test cpd.)” value (from here on “(b) Increase in signal”) is listed as “N”; the “(c) Increase in signal: background ratio” value is listed as “N (N = no)”; the “(d) Signal: Background: ratio (control = with no enhancer)” value is recorded as 2.1 (2.0). Further, for the setting “0.1 mg/ml, 10µl test compound”, the “(a) Decrease in background (without HRP with test cpd.)” value is reported as “Y”; the “(b) Increase in signal” value is recorded as “N”; the “(c) Increase in signal: background ratio” value is given as “N (N = no)”; the “(d) Signal: Background: ratio (control = with no enhancer)” value was 3.2 (2.9). For the setting “1 mg/ml, 10µl test compound”, the “(a) Decrease in background (without HRP with test cpd.)” value is reported as “Y”; the “(b) Increase in signal” value is listed as “N”; the “(c) Increase in signal: background ratio” value is “N (N = no)”.

As to `OB(O)c1cccc(Cl)c1` [Compound 1028, 3-chlorophenylboronic acid], the “(a) Decrease in background (without HRP with test cpd.)” value is “Y”; the “(b) Increase in signal” value was “N and Y”.

Regarding `OB(O)c1ccc(Cl)cc1` [Compound 1029, 4-chlorophenylboronic acid], the “(a) Decrease in background (without HRP with test cpd.)” value is “Y”; the “(b) Increase in signal” value is “Y”; the “(c) Increase in signal: background ratio” value is “Y (key: Column (c) shows whether there was an increase in the signal:background ratio by over 25% of the control value (Y = yes; N = no)”.

Take `O=C(CCl)Nc1cccc(B(O)O)c1` [Compound 1031, 3-chloroacetylaminophenylboronic acid]: under “0.01 mg/ml, 10µl test compound”, the “(a) Decrease in background (without HRP with test cpd.)” value is given as “Y”; the “(b) Increase in signal” value is reported as “N”; the “(c) Increase in signal: background ratio” value was “N (N = no)”; the “(d) Signal: Background: ratio (control = with no enhancer)” value is listed as 2.1 (2.0). Besides, where the note is “0.1 mg/ml, 10µl test compound”, the “(a) Decrease in background (without HRP with test cpd.)” value is given as “Y”; the “(b) Increase in signal” value was “N”; the “(c) Increase in signal: background ratio” value is listed as “N (N = no)”; the “(d) Signal: Background: ratio (control = with no enhancer)” value is 3.3 (2.9). Besides, where the note is “1 mg/ml, 10µl test compound”, the “(a) Decrease in background (without HRP with test cpd.)” value is recorded as “Y”; the “(b) Increase in signal” value is “N”; the “(c) Increase in signal: background ratio” value was “N (N = no)”.

Consider `CCC(C)CNc1cccc(B(O)O)c1` (stereo not shown) [Compound 1032, 3-(2'-methylbutylamino)phenylboronic acid], for which, under “0.01 mg/ml, 10µl test compound”, the “(a) Decrease in background (without HRP with test cpd.)” value is “Y”; the “(b) Increase in signal” value is “N”; the “(c) Increase in signal: background ratio” value was “N (N = no)”. For the setting “0.1 mg/ml, 10µl test compound”, the “(a) Decrease in background (without HRP with test cpd.)” value is “Y”; the “(b) Increase in signal” value is “N”; the “(c) Increase in signal: background ratio” value is reported as “N (N = no)”; the “(d) Signal: Background: ratio (control = with no enhancer)” value is 3.4 (2.9). For the same compound, under “1 mg/ml, 10µl test compound”, the “(a) Decrease in background (without HRP with test cpd.)” value was “Y”; the “(b) Increase in signal” value is given as “N”; the “(c) Increase in signal: background ratio” value was “N (N = no)”.

Turning to `OB(O)c1ccc(Nc2ccc(Cl)cc2)cc1` [Compound 1033, 4-(4'-chloroanilino)phenylboronic acid], where the note is “0.01 mg/ml, 10µl test compound”, the “(a) Decrease in background (without HRP with test cpd.)” value was “Y”; the “(b) Increase in signal” value is recorded as “Y”; the “(c) Increase in signal: background ratio” value is given as “Y (Column (c) shows whether there was an increase in the signal:background ratio by over 25% of the control value (Y = yes)”; the “(d) Signal: Background: ratio (control = with no enhancer)” value was 4.1 (1.8). In addition, where the note is “0.1 mg/ml, 10µl test compound”, the “(a) Decrease in background (without HRP with test cpd.)” value is recorded as “Y”; the “(b) Increase in signal” value is recorded as “Y”; the “(c) Increase in signal: background ratio” value is listed as “Y (Column (c) shows whether there was an increase in the signal:background ratio by over 25% of the control value (Y = yes)”; the “(d) Signal: Background: ratio (control = with no enhancer)” value was 67.7 (2.8). Where the note is “1 mg/ml, 10µl test compound”, the “(a) Decrease in background (without HRP with test cpd.)” value was “Y”; the “(b) Increase in signal” value was “Y”; the “(c) Increase in signal: background ratio” value is “Y (Column (c) shows whether there was an increase in the signal:background ratio by over 25% of the control value (Y = yes)”; the “(d) Signal: Background: ratio (control = with no enhancer)” value is 173.9 (4.5).
